# Measured values as given in US20200405687A1, “METHODS FOR THE TREATMENT OF INFECTION” (Corbus Pharmaceuticals, Inc., priority 2016, published 2020).
# Entries after “also recorded” stand apart in the source; their conditions may differ.
# Columns and labels:
# [1] = Phase 2 study in subjects having cystic fibrosis, acute pulmonary exacerbations and safety (Example 4); assay type: in vivo, human
# Method: An international, multi-center, double-blinded, randomized, placebo-controlled Phase 2 study was performed in subjects having cystic fibrosis. The primary objective of the study was to test safety and tolerability of ajulemic acid in adults with cystic fibrosis who had forced expiratory volume in 1 second (FEV1) percent predicted at least 40% predicted, without regard to their CFTR mutation, infecting pathogen, or baseline treatment. Events of special interest included acute exacerbations requiring intravenous antibiotic treatment or treatment with new antibiotics.
# Eighty-five subjects on stable standard-of-care medications were dosed with ajulemic acid at 21 cystic fibrosis centers in the U.S. and Europe and treated with ajulemic acid daily for a period of 84 days, with a follow-up period of 28 days. During the first part of the study (weeks 1-4) subjects were randomized to the following treatment groups: placebo (n=35), 1 mg/day ajulemic acid (n=26) or 5 mg/day ajulemic acid (n=24). During the second part of the study (weeks 5-13), subjects given ajulemic acid in the first part of the study were re-randomized to ajulemic acid 20 mg once per day (n=31) or ajulemic acid 20 mg twice a day (n=30) with 11 subjects from the placebo group also being randomized to the ajulemic acid arms. The last part of the study was a 28 day follow up period post treatment.
# [2] = test system: UV-killed Escherichia coli; experiment: Skin challenge (blister) model, intradermal UV-killed E. coli in healthy volunteers (Example 3); assay type: in vivo, humans; conditions: for infiltration of neutrophils at the site of inflammation (blister exudate): 4 h and 10 h
# Method: The ability of administration of a pharmaceutical composition including ajulemic acid to treat infection was assayed in a skin challenge model. A self-resolving acute inflammatory response was triggered by the intradermal injection of UV-killed Escherichia coli into the forearm of healthy volunteers. […] This study was performed to determine whether ajulemic acid promotes the resolution of infection at the site of inflammation, thereby treating that infection.
# Cells and exudates were harvested at several time points following injection of UV-killed E. coli by applying negative pressure over the inflamed site.
# The study included four experimental groups (n=10 in each group): • 1) Placebo, twice daily for four days • 2) Ajulemic acid, 5 mg, twice daily for four days • 3) Ajulemic acid, 20 mg, twice daily for four days • 4) Prednisone, 15 mg daily for four days
# The volunteer (healthy males, 18-50 years) were randomly allocated to one of the above three groups and orally administered the test drug for four consecutive days. On the morning of the fourth day (after intake of the first dose), experimental acute inflammation was elicited by infection with UV-killed E. coli. The drug and the placebo were provided as capsules.
# UV killed E. coli (Strain: NCTC 10418, Source: Public Health England, UK) were prepared as follows. E. coli described were grown overnight in Luria Broth (Sigma) at 37° C. The next morning, the bacteria were washed twice in sterile PBS (2500 g, 20 min, 4° C.) and resuspended in a sterile petri dish.
# Bacteria were then killed by exposure to an ultraviolet light (UV) source (302 nm, ChemiDoc, trans-UV mode; Bio-Rad laboratories) for 60 min and then washed again in sterile saline. Bacterial counts were determined by optical density (OD600=0.365 equates to […] E. coli/ml). UVKEc were resuspended in a volume of sterile saline to obtain the count of 1.5×10^8/ml, aliquoted into sterile eppendorf tubes and then frozen at −80° C. until used for injections.
# After disinfecting and shaving the skin, 1.5×10^7 UVKEc in 100 μl saline were injected intradermally into a marked site on the volar aspect of each forearm. To characterize the treatment of infection using ajulemic acid, each forearm was allotted to one of the predefined time-points namely 4, 8, 14, 24, 48 or 72 hours (h). Thus the effects of intradermal injection of UVKEc were allowed to progress for the duration of the time-point after which a suction blister was raised over the marked injection site, and then aspirated immediately. In summary, volunteer had two injection sites, one on each forearm, and contributed to two time points. On a separate group of volunteers, blister was raised on the naïve skin and treated as the baseline time point. Study time-points were discussed with volunteers before consenting.
# Laser Doppler Imager (moor LDI-HIR, Moor Instruments Ltd, Axminster, Devon, UK) was used to quantify the blood flow at the site of infection. At predefined time points after injection of UVKEc, the forearm was placed under the scanner at a fixed distance to scan a fixed area. The scanner emits a laser beam, a portion of which is scattered by red blood cells present at the inflamed area. The scattering causes a change in frequency of the reflected light which is then detected by a photo detector. The velocity and concentration of red blood cells at the site directly affect the Doppler frequency shifts and account for the signal strength measured in arbitrary perfusion units. […] The total blood flow (measured in perfusion units) was calculated as product of number of valid pixels above background signal (Cut-off=300 perfusion units) and the mean blood flow signal over the valid pixels 11, 12.
# To obtain the exudate from the site of infection, a 10 mm diameter suction blister was induced directly over the site of injection. […]
# [3] = 1 mg/day, 5 mg/day, or 20 mg/day, respective treatment periods
# [4] = across doses, compared to placebo
smiles,measurement,setting,value
"CCCCCCC(C)(C)c1cc(O)c2c(c1)OC(C)(C)[C@@H]1CC=C(C(=O)O)C[C@@H]21 [ajulemic acid, (6aR,10aR)-1-hydroxy-6,6-dimethyl-3-(2-methyl-2-octanyl)-6a,7,10,10a-tetrahydro-6H-benzo[c]chromene-9-carboxylic acid]","Acute pulmonary exacerbations requiring a new antibiotic, Subjects","[1]; 1 mg, N = 22, Weeks 1-4, placebo 6 (25.0)",3 (13.6) n/N at risk (%)
same,"Acute pulmonary exacerbations requiring intravenous antibiotics, Subjects","[1]; 1 mg, Weeks 1-4, placebo 3 (8.6)",1 (3.8) n (% at risk)
same,acute pulmonary exacerbations requiring any new antibiotic,[1]; [3],Reductions were also observed
same,acute pulmonary exacerbations requiring intravenous antibiotics,[1]; [3],Reductions were also observed
same,"Acute pulmonary exacerbations requiring a new antibiotic, Subjects","[1]; 5 mg, N = 23, Weeks 1-4, placebo 6 (25.0)",3 (13.0) n/N at risk (%)
same,"Acute pulmonary exacerbations requiring intravenous antibiotics, Subjects","[1]; 5 mg, Weeks 1-4, placebo 3 (8.6)",1 (4.2) n (% at risk)
same,"Acute pulmonary exacerbations requiring a new antibiotic, Subjects","[1]; 20 mg BID, N = 22, Post-treatment, placebo 2 (22.2)",2 (9.1) n/N at risk (%)
same,"Acute pulmonary exacerbations requiring a new antibiotic, Subjects","[1]; 20 mg BID, N = 24, Weeks 5-12, placebo 9 (50.0)",2 (8.3) n/N at risk (%)
same,"Acute pulmonary exacerbations requiring intravenous antibiotics, Subjects","[1]; 20 mg BID, Weeks 5-12, placebo 3 (16.7)",1 (3.3) n (% at risk)
same,reduction in the 48 week rate of acute pulmonary exacerbations requiring any new antibiotic,"[1]; 20 mg BID, compared to placebo",82%
same,reduction in the 48 week rate of acute pulmonary exacerbations requiring intravenous antibiotics,"[1]; 20 mg BID, compared to placebo",75%
same,"Acute pulmonary exacerbations requiring a new antibiotic, Subjects","[1]; 20 mg, N = 20, Post-treatment, placebo 2 (22.2)",6 (30.0) n/N at risk (%)
same,"Acute pulmonary exacerbations requiring a new antibiotic, Subjects","[1]; 20 mg, N = 25, Weeks 5-12, placebo 9 (50.0)",4 (16.0) n/N at risk (%)
same,"Acute pulmonary exacerbations requiring intravenous antibiotics, Subjects","[1]; 20 mg, Weeks 5-12, placebo 3 (16.7)",3 (6.5) n (% at risk)
same,subjects withdrawn due to adverse events,"[1]; 85 subjects dosed, 2 on placebo",3 subjects
same,occurrence of acute pulmonary exacerbations requiring treatment with any new antibiotic,[1]; [4],dose-dependent decrease
same,occurrence of acute pulmonary exacerbations requiring treatment with intravenous antibiotics,[1]; [4],dose-dependent decrease
same,related serious or severe treatment emergent adverse events,"[1]; adults with cystic fibrosis, 1-20 mg BID, 84 days",No related serious or severe treatment emergent adverse events
same,pro-resolving macrophages during the resolution arm of innate immune response,[2]; 5 mg or 20 mg,increases pro-resolving macrophages
same,IL-8 (pro-inflammatory cytokine) levels in inflammatory exudate,"[2]; 5 mg or 20 mg BID, 4 hr and 10 hr, multiplex ELISA, listed as Ajulemic acid",reduce
same,time course of neutrophil infiltration at the site of inflammation,"[2]; 20 mg ajulemic acid group, relative to placebo",neutrophil infiltration is decreased relative to placebo
same,rise in C-reactive protein (CRP) levels in serum,"[2]; after UVKEc triggered acute inflammation, multiple time points",does not appear to inhibit the rise in C-reactive protein levels
same,infiltration of neutrophils at the site of inflammation (blister exudate),"[2]; ajulemic acid 5 mg or 20 mg BID, prednisone 15 mg daily, relative to placebo",decrease in the infiltration of neutrophils
same,infiltration of neutrophils at the site of inflammation (blister exudate),"[2]; ajulemic acid 5 mg or 20 mg BID, prednisone 15 mg daily, relative to placebo, listed as Ajulemic acid",reduce
same,levels of endotoxin at the site of injection,"[2]; ajulemic acid 5 mg or 20 mg BID, prednisone 15 mg daily, 4 hr and 10 hr, limulus amoebocyte lysate test",decreased levels of endotoxin; also recorded: reduces levels of endotoxin
same,local vascular blood flow at injection site (laser Doppler),"[2]; at least 20 mg AJA BID, four days",increase in local blood flow
same,vasodilation,[2]; summary of blister model results,reduce vasodilation
